Reference: ChEMBL document CHEMBL5325400 (Eur J Med Chem, 2023)
Active and inactive are the calls of the source. No cut-off for these calls is given here.

Assays:
HeLa = assay: Antiproliferative activity against human HeLa cells assessed as inhibition of cell growth measured after 48 hrs by MTT assay; type: functional, cell-based
A2780/Taxol = assay: Antiproliferative activity against paclitaxel resistant human A2780/Taxol cells assessed as inhibition of cell growth incubated for 48 hrs by MTT assay; type: functional, cell-based
HepG2 = assay: Antiproliferative activity against human HepG2 cells assessed as inhibition of cell growth measured after 48 hrs by MTT assay; type: functional, cell-based; settings: HepG2, 48 h
MDA-MB-231 = assay: Antiproliferative activity against human MDA-MB-231 cells assessed as inhibition of cell growth measured after 48 hrs by MTT assay; type: functional, cell-based; settings: MDA-MB-231, 48 h
A2780 = assay: cells; settings: Homo sapiens, A2780, 48 h
Description: Antiproliferative activity against human A2780 cells assessed as inhibition of cell growth incubated for 48 hrs by MTT assay

B16-F10 = assay: Antiproliferative activity against mouse B16-F10 cells assessed as inhibition of cell growth measured after 48 hrs by MTT assay; type: functional, cell-based; settings: B16-F10, 48 h
SK-OV-3 = assay: Antiproliferative activity against human SK-OV-3 cells assessed as inhibition of cell growth measured after 48 hrs by MTT assay; type: functional, cell-based; settings: SK-OV-3, 48 h
Tubulin (Sus scrofa) = Tubulin (Sus scrofa) (UniProt P02554+P02550); assay: Inhibition of porcine brain tubulin polymerization at 10 uM measured at 1 min interval for 60 mins by fluorescence based analysis
A549 [1] = assay: Antitumor activity against human A549 cells xenografted in BALB/c mouse assessed as tumor growth inhibition at 10 mg/kg, ip administered every other day for 25 days; type: functional; settings: A549, 600 h, time 25 day, read-out: TGI
A549 [2] = assay: Antitumor activity against human A549 cells xenografted in BALB/c mouse assessed as tumor volume at 10 mg/kg, ip administered every other day for 25 days; type: functional; settings: time 25 day
A549 [3] = assay: Antitumor activity against human A549 cells xenografted in BALB/c mouse assessed as tumor weight at 10 mg/kg, ip administered every other day for 25 days; type: functional, organism-based; settings: time 25.0 day
A549 [4] = assay: Antiproliferative activity against human A549 cells assessed as inhibition of cell growth measured after 48 hrs by MTT assay; type: functional, cell-based; settings: A549, 48 h
[5] = Toxicity in BALB/c mouse xenografted with human A549 cells assessed as change in body weight at 10 mg/kg, ip administered every other day for 25 days; type: organism-based; settings: in vivo, 600 h, time 25 day
A549 [6] = assay: Antiproliferative activity against human A549 cells expressing lentivirus RNAi VTI-96658 assessed as inhibition of cell growth measured after 48 hrs by MTT assay; type: functional, cell-based
A549 [7] = assay: Antiproliferative activity against human A549 cells expressing lentivirus RNAi VTI-96660 assessed as inhibition of cell growth measured after 48 hrs by MTT assay; type: functional, cell-based
A549 [8] = assay: Antiproliferative activity against human A549 cells expressing lentivirus RNAi VTI-96659 assessed as inhibition of cell growth measured after 48 hrs by MTT assay; type: functional, cell-based

Chain of Tubulin (Sus scrofa) (P02550 whole entry, looked up): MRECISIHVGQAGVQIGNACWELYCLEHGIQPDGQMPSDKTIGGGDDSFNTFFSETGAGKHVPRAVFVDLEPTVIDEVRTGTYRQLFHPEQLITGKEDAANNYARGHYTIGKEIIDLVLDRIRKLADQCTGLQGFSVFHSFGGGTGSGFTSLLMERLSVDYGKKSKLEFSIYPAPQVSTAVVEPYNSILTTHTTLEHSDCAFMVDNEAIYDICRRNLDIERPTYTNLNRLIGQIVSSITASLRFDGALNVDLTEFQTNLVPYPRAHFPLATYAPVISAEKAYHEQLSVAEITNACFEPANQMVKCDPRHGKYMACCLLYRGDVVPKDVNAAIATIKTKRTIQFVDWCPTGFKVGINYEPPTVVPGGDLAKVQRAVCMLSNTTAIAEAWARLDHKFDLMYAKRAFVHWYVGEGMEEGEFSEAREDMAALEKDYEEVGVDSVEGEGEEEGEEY
Chain of Tubulin (Sus scrofa) (P02554 whole entry, looked up): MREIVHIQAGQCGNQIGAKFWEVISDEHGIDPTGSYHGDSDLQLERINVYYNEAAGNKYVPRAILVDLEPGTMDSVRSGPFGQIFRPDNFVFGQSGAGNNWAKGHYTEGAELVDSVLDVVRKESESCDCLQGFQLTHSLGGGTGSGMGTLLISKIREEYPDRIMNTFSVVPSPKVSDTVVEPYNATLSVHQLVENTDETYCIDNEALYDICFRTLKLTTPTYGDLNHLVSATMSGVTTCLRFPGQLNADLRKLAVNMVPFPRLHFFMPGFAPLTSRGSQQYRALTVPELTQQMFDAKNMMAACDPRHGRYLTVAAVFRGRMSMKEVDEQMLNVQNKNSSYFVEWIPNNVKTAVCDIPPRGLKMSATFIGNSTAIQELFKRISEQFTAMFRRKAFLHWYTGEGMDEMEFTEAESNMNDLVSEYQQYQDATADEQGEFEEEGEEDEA

| IC50 (HepG2) [nM] | IC50 (MDA-MB-231) [nM] | IC50 (B16-F10) [nM] | IC50 (SK-OV-3) [nM] | inhibition (Tubulin (Sus scrofa)) | IC50 (A549 [4]) [nM] | SMILES | IC50 (HeLa) [nM] | IC50 (A2780/Taxol) [µM] | IC50 (A2780) [nM] | inhibition in vivo at 10 mg/kg (A549 [1]) [%] | Activity (A549 [2]) [%] | Activity (A549 [3]) | Activity [5] | Activity (A549 [6]) | Activity (A549 [7]) | Activity (A549 [8]) |
| --- | --- | --- | --- | --- | --- | --- | --- | --- | --- | --- | --- | --- | --- | --- | --- | --- |
| 2.5 | 1.1 | > 1000 | 34.5 | inactive | 3.8 | CC(=O)O[C@H]1C(=O)[C@@]2(C)[C@H]([C@H](OC(=O)c3ccccc3)[C@]3(O)C[C@H](OC(=O)[C@H](O)[C@@H](NC(=O)c4ccccc4)c4ccccc4)C(C)=C1C3(C)C)[C@]1(OC(C)=O)CO[C@@H]1C[C@@H]2O [PACLITAXEL] | – | 17.9 | – | 48.6 | 46.53 | Active | Non-Toxic | – | – | – |
| 28.5 | 45.3 | 60.7 | 63.2 | Active | 84.1 | O=C(Nc1cccc(Nc2cc(Nc3cccc(C(F)(F)F)c3)ncn2)c1)C1CC1 | 83.4 | – | – | – | – | – | – | Active | Active | Active |

| SMILES | IC50 (HepG2) [nM] | IC50 (MDA-MB-231) [nM] | IC50 (B16-F10) [nM] | IC50 (SK-OV-3) [nM] | inhibition (Tubulin (Sus scrofa)) | IC50 (A549 [4]) [nM] | IC50 (HeLa) [nM] | IC50 (A2780/Taxol) [µM] | IC50 (A2780) [nM] | inhibition in vivo at 10 mg/kg (A549 [1]) [%] | Activity (A549 [2]) [%] | Activity (A549 [3]) | Activity [5] | Activity (A549 [6]) | Activity (A549 [7]) | Activity (A549 [8]) |
| --- | --- | --- | --- | --- | --- | --- | --- | --- | --- | --- | --- | --- | --- | --- | --- | --- |
| COc1cc2c(c(OC)c1OC)-c1ccc(OC)c(=O)cc1[C@@H](NC(C)=O)CC2 [COLCHICINE] | 83.7 | 67.4 | 29.2 | 7.2 | – | – | 33.5 | 0.253 | 20 | – | – | – | – | – | – | – |
